According to paper PMC10817945, “Design of a novel analogue peptide with potent antibiofilm activities against Staphylococcus aureus based upon a sapecin B-derived peptide” (Scientific Reports, 2024):
Converted amounts (≈) assume the structure as drawn. Like-named read-outs stand apart in the source and are kept apart here. Non-standard residues stand in square brackets, D forms with d. Residues, ends and D or L forms follow the SMILES beside them.

Key:
S. aureus isolates = assay: microbe, parasite or virus in culture; format: cell-based, Staphylococcus aureus
Procedure: Minimum inhibitory concentrations (MIC) of KLK, mKLK, and vancomycin were determined using microdilution broth assay according to clinical and laboratory standards institute (CLSI) guidelines with some modifications. Briefly, overnight cultures were diluted in Muller-Hinton broth (MHB; Merck, Germany) to achieve a final density of 5 × 10^5 CFU/ml. A volume of 100 μl of bacterial suspension was added to wells of sterile 96-well plates containing 100 μl of two-fold peptide dilutions, ranging from 0.25 to 256 µg/ml. Vancomycin was used as a positive control in this assay. […] MBC was determined by removing samples from wells with no visible growth, serially diluting, and plating on Mueller Hinton (MH) agar plates for CFU counting.

[1] = test system: preformed S. aureus biofilms; format: cell-based, Staphylococcus aureus; details: for MBEC, range over isolates: preformed biofilms
Procedure: The eradicative activity of KLK and mKLK peptides against preformed S. aureus biofilms was evaluated by determining MBEC, as previously described. The 24-h biofilms developed in TSB in a 96-well plate were washed three times with 200 μl PBS solution. Concentrations of the peptides ranging from 2 to 1024 µg/ml were prepared. A volume of 100 μl of each concentration was added to a corresponding well, and plates were incubated for 18–20 h at 37 °C. Then, wells were washed with sterile PBS solution, and 100 μl of PBS solution was added. The wells were thoroughly scraped with a sterile pipette tip, vortexed and sonicated to release the biofilm cells from the well surface. Subsequently, 10 μl of well contents were plated on MHA. Colonies were counted after 20 h at 37 °C. The MBEC was defined as the lowest concentration of peptide that inhibited bacterial regrowth.

S. aureus [2] = test system: S. aureus; set-up: method as in ref 17 (Manabe et al.); details: ref 17 (Manabe et al.); cited from earlier work
[3] = test system: clinical Salmonella isolates; set-up: method as in PMID 34361810; details: cited from earlier work
in vitro = details: human
Procedure: To quantitatively investigate the cytotoxicity of mKLK and KLK peptides, the 2,3-bis-(2-methoxy-4-nitro-5-sulfophenyl)-2H-tetrazolium-5-carboxanilide (XTT) (cell proliferation kit II, Roche, Germany) assay was performed on human embryonic kidney (HEK)-293 cell line, as described previously[47], The HEK-293 cells were grown in DMEM supplemented with 4 µM glutamine, 10% fetal bovine serum (FBS), and 100 units/ml penicillin/streptomycin at 37 °C in a 5% CO2 and 95% air atmosphere. Following incubation for 24 h, the culture medium was discarded and fresh medium containing different concentrations of KLK and mKLK peptides (1.56, 3.12, 6.25, 12.5, and 25 µM) was added and incubated at 37 °C for 20 min. Then, the culture medium was discarded and 100 µl of XTT reagent mixture was added and incubated for 4 h. Finally, the absorbance was measured at 570 nm using an ELISA plate reader (Anthos 2020, England). The percentage of cell inhibition was calculated using the following formula: % Cell inhibition = Test Abs/Control Abs × 100.

[4] = 50% human serum, 37 °C, 2 h, reverse-phase HPLC
Procedure: To assess the serum stability of mKLK peptide to proteolytic degradation, the D-form mKLK peptide (0.5 mg) was dissolved in 4 ml of 50% (v/v) of serum from male healthy donors in PBS and incubated at 37 °C for 0, 60, and 120 min. After each incubation time, the samples were analyzed by reverse-phase HPLC on a Jupiter proteo C18 column (250 × 4.6 mm) and monitored with a fluorescence detector (wavelength: 560 nm). Analysis of the samples was performed over a linear gradient of 10–60% acetonitrile containing 0.08% trifluoroacetic acid for 50 min at a flow rate of 1 ml/min[48].

S. aureus ATCC 25923 = format: cell-based, Staphylococcus aureus; details: ATCC 25923, 2 h
Procedure: To test the retinue of antimicrobial activity of mKLK in human serum, MIC of the serum-treated peptide was determined against S. aureus ATCC 25923 using microdilution broth assay. […] The MIC was determined as the lowest concentration of peptide at which no visible growth is seen[49].

[5] = test system: S. aureus ATCC25923 and MRSA-1 strains; assay: Catheter-associated biofilm infection mouse model; format: in vivo, Staphylococcus aureus; details: Balb/c mice, 5 days; for reduction of biofilm formation on catheters (crystal-violet assay): ATCC 25923; for reduction of biofilm on catheters (crystal-violet assay): MRSA
Procedure: All animal experiments were performed in accordance with the protocols approved by the Animal Ethics Committee of Ahvaz Jundishapur University of Medical Sciences (Application No. IR.AJUMS.ABHC.REC.1400.014). Female Balb/c mice (Laboratory Animal Reproduction and Maintenance Center Ahvaz Jundishapur University Ahvaz, Iran) were housed one mouse per cage, under sanitary conditions at 22–25 °C and at 12 h light/dark cycles, with access to sanitized pellet food and water. Prior to each experiment, mice were acclimated to room conditions for 1 week. To increase the experimental accuracy, the cages were disinfected with a povidone-iodine solution of 10%, and the bedding materials were autoclaved, and replaced every day.
In this study, eight groups (five mice per group) of 12-week-old female Balb/c mice were obtained from the Pasture Institute of Iran (Tehran, Iran). Three groups were used to investigate the effect of three concentrations of mKLK against ATCC25923 strain, three groups for three concentrations of mKLK against MRSA, and two groups for control). Mice were anesthetized by injection of ketamine 10% and xylazine 2% (in a ratio of 3 to 1). To create a subcutaneous pocket to place three 1-cm-long polyurethane catheters, a small incision was made. Three catheters were subcutaneously implanted on the lower back of mice. Following implantation of the catheters, injection of bacterial suspension and then mKLK peptide was performed into the subcutaneous pocket. […] In addition, PBS was injected alone into animals as a control group without contamination to evaluate the sterility of the surgical procedure. The incision was closed with Vetbond. Tissue adhesive (Kimiatajhiz teb, Iran) and cleansed with 10% PI solution. After 5 days, all mice were euthanized with CO2, and the catheters were removed. Subsequently, catheter-associated biofilms were evaluated using the CFU counting method, crystal violet assay, and SEM.
The biofilm mass attached to the catheter surface was measured using a colorimetric assay (crystal violet). After removing the catheters from the mouse skin and double washing with PBS, each catheter was placed in wells of a 24-well microtiter plate, and absolute methanol was added to fix the biofilm to the catheter surface. Then, the methanol was discarded and the catheters were dried at room temperature. After staining with crystal violet 0.1% for 5 min at room temperature, the dye was discarded and the catheters were washed with PBS. Then, 33% acetic acid was added to each well to release the absorbed dye. […] To enumerate biofilm cells, catheters were removed, transferred to sterile tubes, vortexed, and sonicated. Bacterial numbers were determined by serial diluting and plating on TSA[56].

S. aureus [6] = assay: Effect of 1/2× MIC on bacterial growth; format: cell-based, Staphylococcus aureus
Description: To ensure that the antibiofilm property of mKLK is independent of its ability to inhibit bacterial growth, the effect of 1/2× MIC on bacterial growth was examined.

SMILES | MIC (S. aureus isolates; ATCC25923) [mg/L] | MIC (S. aureus isolates; MRSA-1) [mg/L] | MIC (S. aureus isolates; MRSA-2) [mg/L] | MIC (S. aureus isolates; MRSA-3) [mg/L] | MIC (S. aureus isolates; MSSA-1) [mg/L] | MIC (S. aureus isolates; MSSA-2) [mg/L] | MIC (S. aureus isolates; three MRSA isolates) [mg/L] | MIC (S. aureus isolates; two MSSA isolates) [mg/L] | MBEC ([1]; ATCC25923) [µg/mL] | MBEC ([1]; MRSA-1) [µg/mL] | MBEC ([1]; MRSA-2) [µg/mL] | MBEC ([1]; MRSA-3) [µg/mL] | MBEC ([1]; MSSA-1) [µg/mL] | MBEC ([1]; MSSA-2) [µg/mL] | MBEC, range over isolates [1] [µg/mL] | also measured
CC(C)C[C@@H](NC(=O)[C@H](N)CCCCN)C(=O)N[C@H](CCCCN)C(=O)N[C@H](CC(C)C)C(=O)N[C@H](CC(C)C)C(=O)N[C@H](CC(C)C)C(=O)N[C@H](CC(C)C)C(=O)N[C@H](CC(C)C)C(=O)N[C@H](CCCCN)C(=O)N[C@H](CC(C)C)C(=O)N[C@H](CCCCN)C(N)=O [KLK] (H-[dK][dL][dK][dL][dL][dL][dL][dL][dK][dL][dK]-NH2; N-terminus assumed) | 4 (≈ 3.03 µM) | 8 (≈ 6.05 µM) | 8 (≈ 6.05 µM) | 8 (≈ 6.05 µM) | 4 (≈ 3.03 µM) | 4 (≈ 3.03 µM) | 8 (≈ 6.05 µM) | 4 (≈ 3.03 µM) | 512 | 1024 | 1024 | 1024 | 512 | 512 | 512 to 1024 | MIC (S. aureus [2]): 4 mg/L (≈ 3.03 µM); MIC [3]: > 256 µM; IC50 at 20 min (in vitro): 28.8 µM
CC(C)C[C@@H](NC(=O)[C@H](N)Cc1c[nH]c2ccccc12)C(=O)N[C@H](Cc1c[nH]c2ccccc12)C(=O)N[C@H](C)C(=O)N[C@H](CC(C)C)C(=O)N[C@H](CC(C)C)C(=O)N[C@H](CCCCN)C(=O)N[C@H](CC(C)C)C(=O)N[C@H](CC(C)C)C(=O)N[C@H](CCCCN)C(=O)N[C@H](CC(C)C)C(=O)N[C@H](CCCCN)C(N)=O [mKLK] (H-[dW][dL][dW][dA][dL][dL][dK][dL][dL][dK][dL][dK]-NH2; N-terminus assumed) | 4 (≈ 2.62 µM) | 8 (≈ 5.25 µM) | 8 (≈ 5.25 µM) | 8 (≈ 5.25 µM) | 4 (≈ 2.62 µM) | 4 (≈ 2.62 µM) | 8 (≈ 5.25 µM) | 4 (≈ 2.62 µM) | 64 | 64 | 128 | 64 | 32 | 32 | 32 to 128 | MIC (S. aureus isolates; MRSA clinical isolates, read-out: MIC): 8 mg/L (≈ 5.25 µM); percentage of the peptide remaining [4]: 79%; MIC after serum treatment (S. aureus ATCC 25923): 4 mg/L (≈ 2.62 µM); reduction of biofilm formation on catheters (crystal-violet assay) ([5]; 1/2× MIC): 62%; reduction of biofilm formation on catheters (crystal-violet assay) ([5]; 1/4×MIC): 36%; reduction of biofilm formation on catheters (crystal-violet assay) ([5]; 1 × MIC): 72%; reduction of biofilm on catheters (crystal-violet assay) ([5]; 1/2× MIC): 58%; reduction of biofilm on catheters (crystal-violet assay) ([5]; 1/4× MIC): 27%; reduction of biofilm on catheters (crystal-violet assay) ([5]; 1× MIC): 73%; effect on bacterial growth (S. aureus [6]): did not affect the bacterial growth
